Here are results for one compound from patent US20060264411A1, “Control of biofilm formation” (priority 2005, published 2006).

In assay [1] the test system is E. coli laboratory strain JM109. Kind of assay: Biofilm formation inhibition, crystal violet, E. coli laboratory strain JM109. The note with it: Escherichia coli, read-out: inhibited biofilm formation as compared to the controls. The assay is classed as cell-based. The procedure: Biofilm inhibition experiments were conducted using an assay adapted from the reported protocol described in Pratt and Kolter, 1998, Molecular Microbiology, 30: 285-293; Li et al., 2001, J. Bacteriol., 183: 897-908. E. coli clinical strain UTI89 was grown in LB in 96 well plates at room temperature for one or two days without shaking. E. coli laboratory strain JM109 was grown in LB plus 0.2% glucose in 96 well plates at room temperature for one day without shaking. To quantify the biofilm mass, the suspension culture was poured out and the biofilm was washed three times with water. The biofilm was stained with 0.1% crystal violet for 20 minutes. The plates were then washed three times with water. OD reading at 540 nm was measured to quantify the biofilm mass at the bottom of the wells. Then 95% ethanol was added to dissolve the dye at the bottom and on the wall and the OD reading at 540 nm was measured to quantify the total biofilm mass. To study the overall effect of the compounds (3.6 mg/mL in 100% ethanol as stock solution), it was added with the inoculation and a time course of biofilm mass was measured. Appropriate amounts of 100% ethanol were added to each sample to eliminate the effect of solvent. Each condition had 3-4 replicates on each plate and was performed over multiple days.

Assay [2] deals with Clinical isolates of P. aeruginosa from cystic fibrosis patients. Kind of assay: Detachment of mature biofilms on peg lids, crystal violet. Type of assay: cell-based. Conditions: 5 ug/ml; about 40 hours; eighteen clinical isolates. The procedure:
Clinical isolates of P. aeruginosa from cystic fibrosis patients were passed twice on tryptic soy agar with 5% sheep blood after retrieval from −80° C. and then grown overnight in CAMHB. After dilution of a culture to 0.5 McFarland in broth medium, 100 μl was transferred in triplicate to wells of a flat-bottom 96-well microtiter plate. Bacterial biofilms were formed by immersing the pegs of a modified polystyrene microtiter lid into this biofilm growth plate, followed by incubation at 37° C. for 20 hours with no movement.
Peg lids were rinsed three times in sterile water, placed onto flat-bottom microtiter plates containing biofilm inhibitors at 5 ug/ml in 100 μl of CAMHB per well and incubated for approximately 40 hours at 37° C.
Pegs were rinsed, placed in a 0.1% (wt/vol) crystal violet solution for 15 min, rinsed again, and dried for several hours. To solubilize adsorbed crystal violet, pegs were incubated in 95% ethanol (150 μl per well of a flat-bottom microtiter plate) for 15 min. The absorbance was read at 590 nm on a plate reader. The wells containing asiatic acid were compared to negative controls. Negative controls were prepared as stated above but without asiatic acid.

In assay [3] the test system is P. aeruginosa strain PAO1. Kind of assay: Rotating disk reactor (RDR) biofilm test with and without tobramycin. The assay is classed as cell-based, Pseudomonas aeruginosa. The note with it: for Test Compound, log10 CFU: no tobramycin; for Tobramycin and Test Compound, log10 CFU: then tobramycin 100 μg/ml 2 h. The procedure: Biofilm formation of P. aeruginosa was evaluated using a standardized biofilm method with a rotating disk reactor (RDR). This method provides a model resembling the formation of biofilms in cystic fibrosis patients. The rotating disk reactor consists of a one-liter glass beaker fitted with a drain spout. The bottom of the vessel contains a magnetically driven rotor with six 1.27 cm diameter coupons constructed from polystyrene. The rotor consists of a star-head magnetic stir bar upon which a disk was affixed to hold the coupons. The vessel with the stir bar was placed on a stir plate and rotated to provide fluid shear. A nutrient solution (AB Trace Medium with 0.3 mM glucose, see Table 1 below for composition) was added through a stopper in the top of the reactor at a flow rate of 5 ml/min. The reactor volume was approximately 180 ml and varied slightly between reactors depending on the placement of the drain spout and the rotational speed of the rotor. At a volume of 180 ml, the residence time of the reactors was 36 minutes. The reactors were operated at room temperature (c.a. 26° C.).
For each test, two RDRs were operated in parallel with one receiving test compound and the other serving as an untreated control. The RDRs were sterilized by autoclave, then filled with sterile medium and inoculated with P. aeruginosa strain PAO1. The reactors were then incubated at room temperature in batch mode (no medium flow) for a period of 24 hours, after which the flow was initiated for a further 24 hour incubation. Test compounds were dissolved in 10 ml ethanol to achieve a concentration of 1.8 mg/ml. After the 48 hours of biofilm development described above, the 10 ml of ethanol containing the test compounds were added to the reactor to achieve a final concentration of approximately 50, 100, or 200 μg/ml. Control reactors received 10 ml of ethanol. The reactors were then incubated for an additional 24 hours in batch (no flow) mode. After this incubation period, the six coupons were removed from each reactor and placed in 12-well polystyrene tissue culture plates with wells containing either 2 ml of a 100 μg/ml tobramycin solution or 2 ml of phosphate-buffered saline (PBS). These plates were incubated at room temperature for two hours. The coupons were then rinsed by three transfers to plates containing 2 ml of fresh PBS. For each two RDR reactors run in parallel, four sets of three coupons were obtained: one set with no test compound treatment and no tobramycin treatment, one set with no test compound treatment and tobramycin treatment, one set treated with a test compound treatment and no tobramycin treatment, and one set treated with a test compound treatment and tobramycin. After rinsing, one coupon of each set of three was stained with a LIVE/DEAD® BacLight™ Bacterial Viability Kit (Molecular Probes, Eugene Oreg.) and imaged using epifluorescent microscopy. The remaining two coupons were placed in 10 ml of PBS and sonicated for five minutes to remove and disperse biofilm cells. The resulting bacterial suspensions were then serially diluted in PBS and plated on tryptic soy agar plates for enumeration of culturable bacteria. The plates were incubated for 24 hours at 37° C. before colony forming units (CFU) were determined.
The results are averages from experiments performed on three separate days for each test compound. The values reported are as log10 CFU.

For assay [4], the system named is E. coli clinical strain UTI89. Kind of assay: Invasion of E. coli UTI89 into bladder epithelial cells. Type of assay: cell-based. The note with it: 40 μg/ml; 60 minutes; separate experiments (n=4-7). The procedure:
The effect of test compounds on bacterial invasion of E. coli clinical strain UTI89 was studied as described in Elsinghorst, et al. 1994, Methods Enzymol, 236:405-420; and Martinez et al., 2000, EMBO J., 19:2803-2812. Epithelial bladder cells were grown in plates. Asiatic acid, corosolic acid, or ursolic acid were added at concentrations of 10 μg/ml, 20 μg/ml, or 40 μg/ml to bacteria and epithelial cells for approximately 5, 15, 30, or 60 minutes with approximately 10^7 CFU of E. coli. Binding was assessed at time zero and invasion was assessed at approximately 5, 15, 30, or 60 minutes from completing the mixture of compound, bacteria, and epithelial cells. As a control ethanol was added to cells to a final concentration of 0.1%. The effect of bacterial viability and bacterial adherence during the infection period was evaluated according to the methods described in Martinez et al., 2000, EMBO J., 19:2803-2812.

In a further assay the test system is cysB gene. Conditions: examples of U.S. patent application Ser. No. 11/085,279; cited from earlier work.

Take `C[C@H]1[C@H](C)CC[C@]2(C(=O)O)CC[C@]3(C)C(=CC[C@@H]4[C@@]5(C)C[C@@H](O)[C@H](O)[C@@](C)(CO)[C@@H]5CC[C@]43C)[C@H]12` [Asiatic acid, asiatic acid]: the inhibition at 5 µg/mL in assay [1] (JM 109, 5 ug/ml) is ~70%. In addition, the inhibition at 10 µg/mL in assay [1] (JM 109, 10 ug/ml) is ~80%. For the same compound, the “average detachment of mature biofilms compared to negative controls” value in assay [2] is given as “approximately 50%”. Besides, the “Test Compound, log10 CFU” value is 7.7 log10 CFU in assay [3] (test compound 50 μg/ml 24 h), 7.7 log10 CFU in assay [3] (test compound 100 μg/ml 24 h) and 7.5 log10 CFU in assay [3] (test compound 200 μg/ml 24 h). Moreover, the “Tobramycin and Test Compound, log10 CFU” value in assay [3] (test compound 50 μg/ml 24 h) is reported as 5.3 log10 CFU; in assay [3] (test compound 100 μg/ml 24 h), 5.5 log10 CFU; in assay [3] (test compound 200 μg/ml 24 h) it was 5.2 log10 CFU. For the same compound, the “reduced invasion of E. coli into bladder epithelial cells as compared to the controls” value in assay [4] came out at 87%. Besides, the “expression of a cysB gene in E. coli” value with cysB gene is “modulate the expression of a cysB gene”.
